Measured values published in US20240270762A1, “PENICILLIN-BINDING PROTEIN INHIBITORS” (priority 2021, published 2024).
pEC50, pIC50: −log10 of the molar value. ≈ marks a conversion by molar mass, not a printed value. Read-outs that look alike come from different tables or passages of the source.

Legend:
[1] = tested on: P. aeruginosa CDC-0095; assay: microbe, parasite or virus in culture; format: cell-based; details: Pseudomonas aeruginosa, CDC0095, read-out: Minimum inhibitory concentration, P. aeruginosa CDC-0095
[2] = target: T1, PBP3 from Acinetobacter baumannii (ATCC 19606) (Acinetobacter baumannii, UniProt A0ABX6CK25); assay: Bocillin-FL fluorescence polarization competition binding, A. baumannii PBP3; details: fluorescence polarization competition binding assay using Bocillin-FL; read-out: A. baumannii PBP3 Potency
T1 sequence (A0ABX6CK25 64-610): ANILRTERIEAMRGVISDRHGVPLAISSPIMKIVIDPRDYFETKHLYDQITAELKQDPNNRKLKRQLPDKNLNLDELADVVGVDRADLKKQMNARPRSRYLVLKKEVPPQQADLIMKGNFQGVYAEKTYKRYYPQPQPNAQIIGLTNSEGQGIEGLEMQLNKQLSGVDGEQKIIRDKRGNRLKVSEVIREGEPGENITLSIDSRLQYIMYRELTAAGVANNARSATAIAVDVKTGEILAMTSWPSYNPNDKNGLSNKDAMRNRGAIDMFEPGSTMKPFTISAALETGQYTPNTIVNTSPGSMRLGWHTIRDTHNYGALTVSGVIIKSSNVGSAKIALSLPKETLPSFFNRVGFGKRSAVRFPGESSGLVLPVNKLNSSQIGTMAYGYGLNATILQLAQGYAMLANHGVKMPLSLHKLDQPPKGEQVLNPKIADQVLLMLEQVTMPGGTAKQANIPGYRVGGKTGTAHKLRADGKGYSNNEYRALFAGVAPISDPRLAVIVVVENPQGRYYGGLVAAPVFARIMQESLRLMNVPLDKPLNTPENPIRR
Summary of the method: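 Purified PBP was preincubated with inhibitor (E. coli PBP3 1.5 μM, 30 min; P. aeruginosa PBP3 0.75 μM, A. baumannii PBP3 0.2 μM and PBP1a 1 μM, 15 min), then Bocillin-FL (0.1 μM; 0.05 μM for PBP1a) added and FP read up to 60 min. EC50 = 50% loss of bound probe.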

[3] = tested on: P. aeruginosa CDC-0110; assay: microbe, parasite or virus in culture; format: cell-based; details: Pseudomonas aeruginosa, CDC0110, read-out: Minimum inhibitory concentration, P. aeruginosa CDC-0110
[4] = tested on: A. baumannii CDC-0045; assay: microbe, parasite or virus in culture; format: cell-based; details: Acinetobacter baumannii
[5] = tested on: B. thailandensis ATCC 700388; assay: microbe, parasite or virus in culture; format: cell-based; details: Burkholderia thailandensis, ATCC700388, read-out: Minimum inhibitory concentration (MIC), B. thailandensis ATCC 700388
[6] = target: A. baumannii PBP2 (Acinetobacter baumannii, UniProt D0C8Z9); assay: Bocillin-FL competition binding via gel filtration, A. baumannii PBP2
Summary of the method: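 Competitive equilibrium binding with Bocillin-FL reporter: PBP pre-incubated with inhibitor dilutions, Bocillin-FL added, 15 min incubation. Labelled enzyme isolated by size-exclusion spin plates, fluorescence measured; EC50 obtained by fitting bound fraction against inhibitor concentration with a Hill-coefficient model.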

[7] = tested on: A. baumannii ATCC 19606; assay: microbe, parasite or virus in culture; format: cell-based; details: Acinetobacter baumannii
[8] = tested on: P. aeruginosa ATCC 27853; assay: microbe, parasite or virus in culture; format: cell-based; details: Pseudomonas aeruginosa, ATCC27853, read-out: Minimum inhibitory concentration, P. aeruginosa ATCC 27853
[9] = CDC0045, read-out: MIC, A. baumannii CDC-0045
[10] = ATCC19606, read-out: MIC, A. baumannii ATCC 19606

Chain of A. baumannii PBP2 (D0C8Z9 whole entry): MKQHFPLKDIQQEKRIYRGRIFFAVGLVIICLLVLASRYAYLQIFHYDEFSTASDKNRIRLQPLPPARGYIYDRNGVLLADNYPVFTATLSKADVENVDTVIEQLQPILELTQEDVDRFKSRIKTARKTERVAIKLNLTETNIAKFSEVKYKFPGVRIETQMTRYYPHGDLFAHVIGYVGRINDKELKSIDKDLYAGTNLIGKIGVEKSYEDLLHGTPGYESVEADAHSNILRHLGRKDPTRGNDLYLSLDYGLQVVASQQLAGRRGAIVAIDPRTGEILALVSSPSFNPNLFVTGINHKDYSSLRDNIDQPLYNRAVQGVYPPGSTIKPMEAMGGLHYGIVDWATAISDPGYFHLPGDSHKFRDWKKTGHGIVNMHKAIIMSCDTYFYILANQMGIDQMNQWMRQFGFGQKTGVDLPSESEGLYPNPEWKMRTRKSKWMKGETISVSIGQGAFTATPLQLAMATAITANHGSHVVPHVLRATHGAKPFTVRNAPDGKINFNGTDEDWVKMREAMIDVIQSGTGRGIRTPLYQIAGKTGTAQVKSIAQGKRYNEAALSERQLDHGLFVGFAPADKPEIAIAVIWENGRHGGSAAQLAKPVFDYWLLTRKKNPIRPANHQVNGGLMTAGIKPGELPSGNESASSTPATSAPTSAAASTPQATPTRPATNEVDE

| SMILES | MIC [1] | pIC50 [2] | MIC [3] | MIC [4, 9] | MIC [5] | pEC50 [6] | MIC [7, 10] | MIC [8] | MIC ([4]; CDC0045, read-out: Minimum inhibitory concentration (MIC), A. baumannii CDC-0045) | MIC ([7]; ATCC19606, read-out: Minimum inhibitory concentration (MIC), A. baumannii ATCC 19606) |
| --- | --- | --- | --- | --- | --- | --- | --- | --- | --- | --- |
| O=C(O)c1c(F)ccc2c1OB(O)[C@@H](NC(=O)C(NC(=O)N1CCN(C3CCN(C(=O)Nc4cc(O)ccc4F)CC3)C(=O)C1=O)c1cc(F)c(O)c(O)c1Cl)C2 (stereo partly drawn) [Example 479, (3R)-3-(2-(2-chloro-5-fluoro-3,4-dihydroxyphenyl)-2-(4-(1-((2-fluoro-5-hydroxyphenyl)carbamoyl)piperidin-4-yl)-2,3-dioxopiperazine-1-carboxamido)acetamido)-7-fluoro-2-hydroxy-3,4-dihydro-2H-benzo[e][1,2]oxaborinine-8-carboxylic acid] | < 1 µg/mL | > 5.00 | < 1 µg/mL | < 1 µg/mL | < 1 µg/mL | 4.30 to 5.00 | < 1 µg/mL | 2 to 4 µg/mL (≈ 2.44 to 4.88 µM) | – | – |
| O=C(O)c1c(F)ccc2c1OB(O)[C@@H](NC(=O)C(NC(=O)N1CCN(C3CCN(C(=O)Nc4ccc(F)c(O)c4)CC3)C(=O)C1=O)c1cc(F)c(O)c(O)c1Cl)C2 (stereo partly drawn) [Example 480, (3R)-3-(2-(2-chloro-5-fluoro-3,4-dihydroxyphenyl)-2-(4-(1-((4-fluoro-3-hydroxyphenyl)carbamoyl)piperidin-4-yl)-2,3-dioxopiperazine-1-carboxamido)acetamido)-7-fluoro-2-hydroxy-3,4-dihydro-2H-benzo[e][1,2]oxaborinine-8-carboxylic acid] | < 1 µg/mL | > 5.00 | 2 to 4 µg/mL (≈ 2.44 to 4.88 µM) | < 1 µg/mL | 2 to 4 µg/mL (≈ 2.44 to 4.88 µM) | 4.30 to 5.00 | < 1 µg/mL | 2 to 4 µg/mL (≈ 2.44 to 4.88 µM) | – | – |
| O=C(O)c1c(F)ccc2c1OB(O)[C@@H](NC(=O)C(NC(=O)N1CCN(C3CCN(C(=O)Nc4cc(O)cc(F)c4)CC3)C(=O)C1=O)c1cc(F)c(O)c(O)c1Cl)C2 (stereo partly drawn) [Example 481, (3R)-3-(2-(2-chloro-5-fluoro-3,4-dihydroxyphenyl)-2-(4-(1-((3-fluoro-5-hydroxyphenyl)carbamoyl)piperidin-4-yl)-2,3-dioxopiperazine-1-carboxamido)acetamido)-7-fluoro-2-hydroxy-3,4-dihydro-2H-benzo[e][1,2]oxaborinine-8-carboxylic acid] | < 1 µg/mL | > 5.00 | < 1 µg/mL | < 1 µg/mL | 2 to 4 µg/mL (≈ 2.44 to 4.88 µM) | > 5.00 | < 1 µg/mL | 2 to 4 µg/mL (≈ 2.44 to 4.88 µM) | – | – |
| O=C(O)c1c(F)ccc2c1OB(O)[C@@H](NC(=O)[C@H](NC(=O)N1CCN(C3CCN(C(=O)Nc4cccc(O)c4Cl)CC3)C(=O)C1=O)c1cc(F)c(O)c(O)c1Cl)C2 [Example 482, (R)-3-((R)-2-(4-(1-((2-chloro-3-hydroxyphenyl)carbamoyl)piperidin-4-yl)-2,3-dioxopiperazine-1-carboxamido)-2-(2-chloro-5-fluoro-3,4-dihydroxyphenyl)acetamido)-7-fluoro-2-hydroxy-3,4-dihydro-2H-benzo[e][1,2]oxaborinine-8-carboxylic acid] | < 1 µg/mL | > 5.00 | 2 to 4 µg/mL (≈ 2.39 to 4.79 µM) | < 1 µg/mL | < 1 µg/mL | 4.30 to 5.00 | < 1 µg/mL | 2 to 4 µg/mL (≈ 2.39 to 4.79 µM) | – | – |
| O=C(O)c1c(F)ccc2c1OB(O)[C@@H](NC(=O)C(NC(=O)N1CCN(C3CCN(C(=O)Nc4cc(O)ccc4Cl)CC3)C(=O)C1=O)c1cc(F)c(O)c(O)c1Cl)C2 (stereo partly drawn) [Example 483, (3R)-3-(2-(2-chloro-5-fluoro-3,4-dihydroxyphenyl)-2-(4-(1-((2-chloro-5-hydroxyphenyl)carbamoyl)piperidin-4-yl)-2,3-dioxopiperazine-1-carboxamido)acetamido)-7-fluoro-2-hydroxy-3,4-dihydro-2H-benzo[e][1,2]oxaborinine-8-carboxylic acid] | 2 to 4 µg/mL (≈ 2.39 to 4.79 µM) | > 5.00 | 2 to 4 µg/mL (≈ 2.39 to 4.79 µM) | < 1 µg/mL | 32 to 64 µg/mL (≈ 38.3 to 76.6 µM) | 4.30 to 5.00 | < 1 µg/mL | 2 to 4 µg/mL (≈ 2.39 to 4.79 µM) | – | – |
| O=C(O)c1c(F)ccc2c1OB(O)[C@@H](NC(=O)C(NC(=O)N1CCN(C3CCN(C(=O)Nc4cc(O)cc(Cl)c4)CC3)C(=O)C1=O)c1cc(F)c(O)c(O)c1Cl)C2 (stereo partly drawn) [Example 484, (3R)-3-(2-(2-chloro-5-fluoro-3,4-dihydroxyphenyl)-2-(4-(1-((3-chloro-5-hydroxyphenyl)carbamoyl)piperidin-4-yl)-2,3-dioxopiperazine-1-carboxamido)acetamido)-7-fluoro-2-hydroxy-3,4-dihydro-2H-benzo[e][1,2]oxaborinine-8-carboxylic acid] | 2 to 4 µg/mL (≈ 2.39 to 4.79 µM) | > 5.00 | 2 to 4 µg/mL (≈ 2.39 to 4.79 µM) | < 1 µg/mL | 32 to 64 µg/mL (≈ 38.3 to 76.6 µM) | > 5.00 | < 1 µg/mL | 2 to 4 µg/mL (≈ 2.39 to 4.79 µM) | – | – |
| O=C(O)c1c(F)ccc2c1OB(O)[C@@H](NC(=O)C(NC(=O)N1CCN(C3CCN(S(=O)(=O)Cc4cccc(O)c4)CC3)C(=O)C1=O)c1cc(F)c(O)c(O)c1Cl)C2 (stereo partly drawn) [Example 485, (3R)-3-(2-(2-chloro-5-fluoro-3,4-dihydroxyphenyl)-2-(4-(1-((3-hydroxybenzyl)sulfonyl)piperidin-4-yl)-2,3-dioxopiperazine-1-carboxamido)acetamido)-7-fluoro-2-hydroxy-3,4-dihydro-2H-benzo[e][1,2]oxaborinine-8-carboxylic acid] | < 1 µg/mL | > 5.00 | < 1 µg/mL | < 1 µg/mL | 2 to 4 µg/mL (≈ 2.39 to 4.78 µM) | > 5.00 | < 1 µg/mL | 2 to 4 µg/mL (≈ 2.39 to 4.78 µM) | – | – |
| O=C(O)c1c(F)ccc2c1OB(O)[C@@H](NC(=O)C(NC(=O)N1CCN(C3CCN(C(=O)Nc4ccc(F)c(O)c4F)CC3)C(=O)C1=O)c1cc(F)c(O)c(O)c1Cl)C2 (stereo partly drawn) [Example 486, (3R)-3-(2-(2-chloro-5-fluoro-3,4-dihydroxyphenyl)-2-(4-(1-((2,4-difluoro-3-hydroxyphenyl)carbamoyl)piperidin-4-yl)-2,3-dioxopiperazine-1-carboxamido)acetamido)-7-fluoro-2-hydroxy-3,4-dihydro-2H-benzo[e][1,2]oxaborinine-8-carboxylic acid] | < 1 µg/mL | > 5.00 | < 1 µg/mL | – | 2 to 4 µg/mL (≈ 2.39 to 4.78 µM) | > 5.00 | – | 2 to 4 µg/mL (≈ 2.39 to 4.78 µM) | < 1 µg/mL | < 1 µg/mL |
